Assays:
CfVgRXR + MmRXR = experiment: Transactivation of reporter genes through switch 1.9 in 293 cells; assay type: cell-based, Choristoneura fumiferana; details: switch 1.9 CfVgRXR + MmRXR, pIND(SP1)LacZ
Procedure: This example was prepared in the same way as switch 1.8 except DinEcR was replaced with a truncated CfEcR comprising a partial A/B domain and the complete CDEF domains [SEQ ID NO: 62 (polynucleotide) and SEQ ID NO: 63 (polypeptide)].
(§1) The same procedures described for CHO were followed for 293 cells except that the cells were plated in biocoated plates to avoid clumping.
(§2) Cells were harvested 24-48 hr after adding ligands. […] Twenty μl of lysate was assayed.

GAL4CfEcRVP16 [1] = experiment: Transactivation of reporter genes through switch 1.6 in 293 cells; assay type: cell-based, Choristoneura fumiferana; details: switch 1.6 GAL4CfEcRVP16, pGAL4RELuc
Procedure: (§3) This construct was prepared so that both the GAL4 DNABD and the VP16AD were placed on the same molecule. GAL4DNABD (SEQ ID NO: 41) and VP16AD (SEQ ID NO: 45) were fused to CfEcRDEF (SEQ ID NO: 3) at N- and C-termini respectively.
as §1, §2

GAL4CfEcRVP16 [2] = experiment: Transactivation of reporter genes through switch 1.6 in 3T3 cells; assay type: cell-based, Choristoneura fumiferana; details: switch 1.6 GAL4CfEcRVP16, pGAL4RELuc
Procedure: as §3
(§4) The cells were plated when they reached 50% confluency.
as §2

DmVgRXR + MmRXR = target: T1, DmVgRXR + MmRXR (Drosophila melanogaster, UniProt P34021, E282G/G283S/G286V); experiment: Transactivation of reporter genes through switch 1.8 in CHO cells; assay type: cell-based; details: switch 1.8 DmVgRXR + MmRXR, pIND(SP1)LacZ
T1 construct: host or cells: CHO, NIH3T3, 293 or CV1 cells (one cell line per assay)
Text: This system was purchased from Invitrogen Corp., Carlsbad, Calif. It comprises a Drosophila melanogaster EcR (“DmEcR”) with a modified DNABD fused to VP16AD and placed under the control of a CMV promoter (SEQ ID NO: 60). Full length MmRXR (SEQ ID NO: 53) was placed under the control of the RSV promoter (SEQ ID NO: 61). The reporter, pIND(SP1)LacZ, contains five copies of a modified ecdysone response element (“EcRE”, E/GRE), three copies of an SP1 enhancer, and a minimal heat shock promoter, all of which were placed upstream to the LacZ reporter gene.
(§5) The cells were harvested and reporter activity was assayed.
as §2

GAL4RXR + VP16CfEcR = experiment: Transactivation of reporter genes through switch 1.3 in 3T3 cells
Text: In various cellular backgrounds, including mammalian cells, insect ecdysone receptor (EcR) heterodimerizes with retinoid X receptor (RXR) and, upon binding of ligand, transactivates genes under the control of ecdysone response elements. Applicants constructed several EcR-based gene expression cassettes based on the spruce budworm Choristoneura fumiferana EcR (“CfEcR”; full length polynucleotide and amino acid sequences are set forth in SEQ ID NO: 49 and SEQ ID NO: 50, respectively), C. fumiferana ultraspiracle (“CfUSP”; full length polynucleotide and amino acid sequences are set forth in SEQ ID NO: 51 and SEQ ID NO: 52, respectively), and mouse Mus musculus RXRα (MmRXRα; full length polynucleotide and amino acid sequences are set forth in SEQ ID NO: 53 and SEQ ID NO: 54, respectively). The prepared receptor constructs comprise a ligand binding domain of EcR and of RXR or of USP; a DNA binding domain of GAL4 or of EcR; and an activation domain of VP16. The reporter constructs include a reporter gene, luciferase or LacZ, operably linked to a synthetic promoter construct that comprises either GAL4 or EcR/USP binding sites (response elements). Various combinations of these receptor and reporter constructs were cotransfected into CHO, NIH3T3, CV1 and 293 cells. […] Reporter gene expression activities were assayed at 24 hr or 48 hr after ligand addition.
MmRXRDEF (SEQ ID NO: 22) was fused to a GAL4DNABD (SEQ ID NO: 41) and CfEcRCDEF (SEQ ID NO: 1) was fused to a VP16AD (SEQ ED NO: 45).
The same procedures described for CHO cells were followed for 3T3 cells as well with two modifications. The cells were plated when they reached 50% confluency. 125,000 or 50,000 or 25,000 cells were plated per well of 6- or 12- or 24-well plates respectively. The GAl4EcR/VP16RXR and reporter vector DNAs were transfected into NIH3T3 cells, the transfected cells were grown in medium containing PonA, MurA, N-(2-ethyl-3-methoxybenzoyl)-N′-(3,5-dimethylbenzoyl)-N′-t-butylhydrazine, or N-(3,4-(1,2-ethylenedioxy)-2-methylbenzoyl)-N′-(3,5-dimethylbenzoyl)-N′-tert-butylhydrazine for 48 hr. The ligand treatments were performed as described in the CHO cell section above.
Cells were harvested 24-48 hr after adding ligands. 125, 250, or 500 μl of passive lysis buffer (part of Dual-luciferase™ reporter assay system from Promega Corporation) were added to each well of 24- or 12- or […] respectively. The plates were placed on a rotary shaker for 15 min. Twenty μl of lysate was assayed. Luciferase activity was measured using Dual-luciferase™ reporter assay system from Promega Corporation following the manufacturer's instructions. β-Galactosidase was measured using Galacto-Star™ assay kit from TROPIX following the manufacturer's instructions. All luciferase and β-galactosidase activities were normalized using Renilla luciferase as a standard. Fold activities were calculated by dividing normalized relative light units (“RLU”) in ligand treated cells with normalized RLU in DMSO treated cells (untreated control).

VP16CfEcR [3] = experiment: Transactivation of reporter genes through switch 1.7 in CHO cells; assay type: cell-based, Choristoneura fumiferana; details: switch 1.7 VP16CfEcR, pEcRELuc
Procedure: (§6) Six ecdysone response elements (“EcRE”; SEQ ID NO: 59) from the hsp27 gene were placed upstream of the promoter and a luciferase gene (SEQ ID NO: 57). This switch most probably uses endogenous RXR.
as §5, §2

GAL4USP + VP16CfEcR = experiment: Transactivation of reporter genes through switch 1.5 in 293 cells; assay type: cell-based, Choristoneura fumiferana; details: switch 1.5 GAL4USP + VP16CfEcR, pGAL4RELuc
Procedure: This construct was prepared in the same way as switch 1.3 except MmRXRDEF was replaced with CfUSPDEF (SEQ ID NO: 58).
as §1, §2

VP16CfEcR [4] = experiment: Transactivation of reporter genes through switch 1.7 in 3T3 cells; assay type: cell-based, Choristoneura fumiferana; details: switch 1.7 VP16CfEcR, pEcRELuc
Procedure: as §6, §4, §2

T1 sequence (P34021 whole entry E282G/G283S/G286V): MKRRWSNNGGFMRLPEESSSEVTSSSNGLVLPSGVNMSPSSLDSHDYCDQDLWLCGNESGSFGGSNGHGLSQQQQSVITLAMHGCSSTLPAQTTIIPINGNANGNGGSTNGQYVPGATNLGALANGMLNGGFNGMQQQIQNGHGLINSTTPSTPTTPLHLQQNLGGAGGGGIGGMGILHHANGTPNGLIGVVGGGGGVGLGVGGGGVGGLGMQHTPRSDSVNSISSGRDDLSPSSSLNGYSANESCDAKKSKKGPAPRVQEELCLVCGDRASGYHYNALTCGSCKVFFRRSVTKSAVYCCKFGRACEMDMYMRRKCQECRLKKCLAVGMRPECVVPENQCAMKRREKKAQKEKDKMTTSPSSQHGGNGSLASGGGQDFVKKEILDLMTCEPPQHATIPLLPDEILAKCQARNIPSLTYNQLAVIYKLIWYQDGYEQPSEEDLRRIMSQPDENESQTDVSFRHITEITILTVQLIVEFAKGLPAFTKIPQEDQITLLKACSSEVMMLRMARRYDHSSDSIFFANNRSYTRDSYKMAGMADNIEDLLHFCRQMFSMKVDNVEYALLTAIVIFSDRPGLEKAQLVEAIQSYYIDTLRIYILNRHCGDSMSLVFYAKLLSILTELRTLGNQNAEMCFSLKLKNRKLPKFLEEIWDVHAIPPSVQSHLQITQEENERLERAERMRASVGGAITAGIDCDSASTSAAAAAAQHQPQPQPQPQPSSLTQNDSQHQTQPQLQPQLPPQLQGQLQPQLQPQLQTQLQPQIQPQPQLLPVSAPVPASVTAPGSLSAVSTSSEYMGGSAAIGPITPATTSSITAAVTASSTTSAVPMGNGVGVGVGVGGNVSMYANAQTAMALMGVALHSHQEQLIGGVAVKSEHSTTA
T1 sequence (P28700 whole entry, further chain): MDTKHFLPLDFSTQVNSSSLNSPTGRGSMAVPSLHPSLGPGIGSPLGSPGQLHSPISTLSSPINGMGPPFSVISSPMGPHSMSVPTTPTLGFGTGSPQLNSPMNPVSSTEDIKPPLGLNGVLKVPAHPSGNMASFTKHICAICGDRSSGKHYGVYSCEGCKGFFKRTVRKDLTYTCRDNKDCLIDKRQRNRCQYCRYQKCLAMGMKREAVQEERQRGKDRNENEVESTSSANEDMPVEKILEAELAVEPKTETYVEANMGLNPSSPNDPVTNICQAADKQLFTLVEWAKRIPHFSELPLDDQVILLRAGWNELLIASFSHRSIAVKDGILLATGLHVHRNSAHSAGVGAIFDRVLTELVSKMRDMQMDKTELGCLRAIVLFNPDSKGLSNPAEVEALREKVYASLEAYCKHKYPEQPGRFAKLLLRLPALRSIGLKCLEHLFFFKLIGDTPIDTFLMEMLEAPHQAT

CCc1c(OC)cccc1C(=O)NN(C(=O)c1cc(C)cc(C)c1)C(C)(C)C [N-(2-ethyl-3-methoxybenzoyl)-N′-(3,5-dimethylbenzoyl)-N′-tert-butylhydrazine]
Mean Fold Activation Through N-(2-ethyl-3-methoxybenzoyl)-N′-(3,5-dimethylbenzoyl)-N′-t-butylhydrazine (CfVgRXR + MmRXR): 12 fold | Mean Fold Activation Through N-(2-ethyl-3-methoxybenzoyl)-N′-(3,5-dimethylbenzoyl)-N′-t-butylhydrazine (GAL4CfEcRVP16 [1]): 3 fold | Mean Fold Activation Through N-(2-ethyl-3-methoxybenzoyl)-N′-(3,5-dimethylbenzoyl)-N′-t-butylhydrazine (GAL4CfEcRVP16 [2]): 7 fold | Mean Fold Activation with 50 μM N-(2-ethyl-3-methoxybenzoyl)-N′-(3,5-dimethylbenzoyl)-N′-t-butylhydrazine (DmVgRXR + MmRXR): 14 fold | Mean Fold Induction at 1.0 μM Concentration (GAL4RXR + VP16CfEcR; GAL4MmRXRDEF/VP16CfEcRCDEF (switch 1.3), 1.0 μM ligand): 71 fold | Mean Fold Activation Through N-(2-ethyl-3-methoxybenzoyl)-N′-(3,5-dimethylbenzoyl)-N′-t-butylhydrazine (GAL4RXR + VP16CfEcR; switch 1.3 GAL4RXR + VP16CfEcR, pGAL4RELuc): 47 fold | Mean Fold Activation with 50 μM N-(2-ethyl-3-methoxybenzoyl)-N′-(3,5-dimethylbenzoyl)-N′-t-butylhydrazine (VP16CfEcR [3]): 36 fold | Mean Fold Activation Through N-(2-ethyl-3-methoxybenzoyl)-N′-(3,5-dimethylbenzoyl)-N′-t-butylhydrazine (GAL4USP + VP16CfEcR): 2 fold | Mean Fold Activation Through N-(2-ethyl-3-methoxybenzoyl)-N′-(3,5-dimethylbenzoyl)-N′-t-butylhydrazine (VP16CfEcR [4]): 1 fold
